Earlier results in patent US20020137692A1, “Novel compositions of potassium channel openers and protein kinase C inhibitors and use thereof” (Pharmacia AB, priority 2001, published 2002).

Experiments:
[1] = test system: hair growth
[2] = test system: hair keratinocytes
[3] = test system: C3H mouse

| Compound | anagen induction in vivo [1] | stimulation of hair keratinocytes [2] | hair growth stimulation [3] |
| --- | --- | --- | --- |
| polymyxin B sulfate | marked anagen induction |  |  |
| Oc1cc(O)c2c(c1)O[C@H](c1ccc(O)c(O)c1)[C@H](O)[C@H]2c1c(O)cc(O)c2c1O[C@H](c1ccc(O)c(O)c1)[C@H](O)[C@H]2c1c(O)cc(O)c2c1O[C@H](c1ccc(O)c(O)c1)[C@H](O)C2 [procyanidin C1] | marked anagen induction | stimulation of hair keratinocytes | hair growth stimulation |
| calphostin C | marked anagen induction |  |  |
| CCCCCCCCCCCCCCCC(=O)OC(CC(=O)O)C[N+](C)(C)C.[Cl-] (racemic) [palmitoyl-DL-carnitine chloride] | marked anagen induction |  |  |
| CCCCCCCCCCCCCCCCOP(=O)([O-])OCC[N+](C)(C)C [hexadecylphosphocholine] | marked anagen induction |  |  |
| Oc1cc(O)c2c(c1)O[C@H](c1ccc(O)c(O)c1)[C@@H](O)[C@@H]2c1c(O)cc(O)c2c1O[C@H](c1ccc(O)c(O)c1)[C@@H](O)C2 [Solution B3, procyanidin B3] |  | stimulation of hair keratinocytes | hair growth stimulation |
| Oc1cc(O)c2c(c1)O[C@H](c1ccc(O)c(O)c1)[C@H](O)[C@H]2c1c(O)cc(O)c2c1O[C@H](c1ccc(O)c(O)c1)[C@@H](O)C2 [procyanidin B1] |  | stimulation of hair keratinocytes | hair growth stimulation |
| Oc1cc(O)c2c(c1)O[C@H](c1ccc(O)c(O)c1)[C@H](O)[C@H]2c1c(O)cc(O)c2c1O[C@H](c1ccc(O)c(O)c1)[C@H](O)C2 [procyanidin B2] | marked anagen induction | stimulation of hair keratinocytes | hair growth stimulation |
